Read-outs that look alike come from different tables or passages of the source.
Tests used:
membrane potential = conditions: literature values, cited from earlier work; for Approx ΔF/F per 100 mV: ΔR/R where comment says ratiometric
[1] = Schiff base pKa and fluorescence of GPR / PROPS; assay type: physicochemical

Molecule | Approx response time (membrane potential) [ms] | Approx ΔF/F per 100 mV (membrane potential) [%] | pKa of the Schiff Base [1] | pKa of the Schiff Base ([1]; listed as green proteorhodopsin)
CCCCN(CCCC)c1ccc(/C=C/C=C/C=C/c2cc[n+](CCCCS(=O)(=O)[O-])cc2)cc1 [RH237] | <1 | 11 |  | 
CCCCN(CCCC)c1ccc2cc(/C=C/c3cc[n+](CCCS(=O)(=O)[O-])cc3)ccc2c1 [di-4-ANEPPS] | <1 | 8 |  | 
Flash | 2.8 to 85 | 5.1 |  | 
CCCCCCCCN(CCCCCCCC)c1ccc2cc(/C=C/c3cc[n+](CCCS(=O)(=O)[O-])cc3)ccc2c1 [di-8-ANEPPS] | <1 | 10 |  | 
CCCCCN(CCCCC)c1ccc(/C=C/C=C/c2cc[n+](CCCCS(=O)(=O)[O-])cc2)cc1 [RH421] | <1 | 21 |  | 
GPR: Green-absorbing proteorhodopsin, light-driven proton pump found in marine bacteria (protein, /note=“Description of Unknown Green-absorbing proteorhodopsin polypeptide from an uncultured marine bacterium”) TMGKLLLILGSVIALPTFAAGGGDLDASDYTGVSFWLVTAALLASTVFFFVERDRVSAKWKTSLTVSGLVTGIAFWHYMYMRGVWIETGDSPTVFRYIDWLLTVPLLICEFYLILAAATNVAAGLFKKLLVGSLVMLVFGYMGEAGIMNAWPAFIIGCLAWVYMIYELYAGEGKSACNTASPSVQSAYNTMMAIIVFGWAIYPVGYFTGYLMGDGGSALNLNLIYNLADFVNKILFGLIIWNVAVKESSNA |  |  | ~12 | > 12

Reference: US20150004637A1, “SYSTEMS AND METHODS FOR IMAGING AT HIGH SPATIAL AND/OR TEMPORAL PRECISION” (President and Fellows of Harvard College, priority 2011, published 2015)
